Reference: US20240025906A1 (NEURON23, INC., priority 2022, published 2024)

What was measured:
TYK2 JH2 = target: T1, TYK2 JH2 (Homo sapiens, UniProt P29597); assay: TYK2 JH2 binding assay (KINOMEscan KdELECT competitive binding); conditions: TYK2 JH2 domain, KINOMEscan KdELECT (Assay A); read-out: Biochemical TYK2_DiscoverX_JH2_BND_Kd
T1 construct: purchased DiscoverX (KINOMEscan KdELECT service); host or cells: E. coli BL21-derived (T7 phage display) or HEK-293
In short: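 JH2-domain fragment, expressed as T7 phage tag in BL21-derived E. coli or DNA-tagged from HEK-293, competed with test compound against bead-immobilized biotinylated ligand in binding buffer (0.9% DMSO). 1 h shaking at room temperature; bound kinase eluted with 0.5 μM free ligand and quantified by qPCR. Kd from 11-point 3-fold dilutions.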

[1] = test system: JAK1/TYK2 pSTAT5 (Tyr694/699) in THP-1 cell line; assay: IFNa-stimulated JAK1/TYK2 pSTAT5 (Tyr694/699) inhibition cellular assay, AlphaLISA; format: cell-based; conditions: Homo sapiens; THP-1 cells, IFNa-stimulated, AlphaLISA (Assay B); read-out: Cellular_THP1_IFNa-pSTATS_TYK2
In short: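 THP-1 cells (2e4/well in HBSS) were preincubated with compound (8 points, 6-fold steps from 10000 nM final) for 1 h at 37 °C, then stimulated with IFNa (added at 100 ng/mL) for 30 min. Lysate pSTAT5 was read by AlphaLISA at 615 nm. IC50 came from a 4-parameter fit with bottom 0 and Hill −1.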

T1 sequence (P29597 589-875 limits assumed): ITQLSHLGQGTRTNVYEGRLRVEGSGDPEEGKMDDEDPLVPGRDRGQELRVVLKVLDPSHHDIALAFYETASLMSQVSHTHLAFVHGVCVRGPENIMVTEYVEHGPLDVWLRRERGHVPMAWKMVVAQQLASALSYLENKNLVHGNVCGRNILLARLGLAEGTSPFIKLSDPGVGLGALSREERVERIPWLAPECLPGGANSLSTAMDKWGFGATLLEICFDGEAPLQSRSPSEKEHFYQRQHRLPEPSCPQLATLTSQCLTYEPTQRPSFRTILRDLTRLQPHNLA

Structure (SMILES)	Kd (TYK2 JH2)	IC50 [1]
CNc1ncc(C#Cc2ccc3nc(C(F)F)n(C)c3c2)c2cc(NC(=O)C3CC3)ncc12 [Example 739, N-(5-((2-(difluoromethyl)-1-methyl-1H-benzo[d]imidazol-6-yl)ethynyl)-8-(methylamino)-2,7-naphthyridin-3-yl)cyclopropanecarboxamide]	≤ 100 nM	≤ 500 nM
CNc1ncc(C#Cc2ccc3nc(C4CC4)n(C)c3c2)c2cc(NC(=O)C3CC3)ncc12 [Example 740, N-(5-((2-cyclopropyl-1-methyl-1H-benzo[d]imidazol-6-yl)ethynyl)-8-(methylamino)-2,7-naphthyridin-3-yl)cyclopropanecarboxamide]	≤ 100 nM	≤ 500 nM
CNc1ncc(C#Cc2ccc(OC)cn2)c2cc(NC(=O)[C@H]3C[C@H]3C)ncc12 [Example 742, (1S,2R)—N-(5-((5-methoxypyridin-2-yl)ethynyl)-8-(methylamino)-2,7-naphthyridin-3-yl)-2-methylcyclopropane-1-carboxamide]	≤ 100 nM	≤ 500 nM
CCNc1ncc(C#Cc2ccc3nc4n(c3c2)CCOC4)c2cc(NC(=O)C3CC3)ncc12 [Example 750, N-(5-((3,4-dihydro-1H-benzo[4,5]imidazo[2,1-c][1,4]oxazin-7-yl)ethynyl)-8-(ethylamino)-2,7-naphthyridin-3-yl)cyclopropanecarboxamide]	≤ 100 nM	≤ 500 nM
CNc1ncc(C#Cc2ccc(OC)cc2)c2cc(NC(=O)[C@@H]3C[C@@H]3F)ncc12 [Example 752, (1S,2S)-2-fluoro-N-(5-((4-methoxyphenyl)ethynyl)-8-(methylamino)-2,7-naphthyridin-3-yl)cyclopropane-1-carboxamide]	≤ 100 nM	≤ 500 nM
CNc1ncc(C#Cc2ccc(OC)cc2)c2cc(NC(=O)[C@H]3C[C@H]3C)ncc12 [Example 753, (1S,2R)—N-(5-((4-methoxyphenyl)ethynyl)-8-(methylamino)-2,7-naphthyridin-3-yl)-2-methylcyclopropane-1-carboxamide]	≤ 100 nM	≤ 500 nM
CNc1ncc(C#Cc2ccc(OC3CN(C(C)=O)C3)cc2)c2cc(NC(=O)C3(F)CC3)ncc12 [Example 760, N-(5-((4-((1-acetylazetidin-3-yl)oxy)phenyl)ethynyl)-8-(methylamino)-2,7-naphthyridin-3-yl)-1-fluorocyclopropane-1-carboxamide]	≤ 100 nM	≤ 500 nM
CCn1c(C)nc2ccc(C#Cc3cnc(NC)c4cnc(NC(=O)C5CC5)cc34)cc21 [Example 761, N-(5-((1-ethyl-2-methyl-1H-benzo[d]imidazol-6-yl)ethynyl)-8-(methylamino)-2,7-naphthyridin-3-yl)cyclopropanecarboxamide]	≤ 100 nM	≤ 500 nM
CCn1c(C)nc2cc(C#Cc3cnc(NC)c4cnc(NC(=O)C5CC5)cc34)ccc21 [Example 762, N-(5-((1-ethyl-2-methyl-1H-benzo[d]imidazol-5-yl)ethynyl)-8-(methylamino)-2,7-naphthyridin-3-yl)cyclopropanecarboxamide]	≤ 100 nM	≤ 500 nM
CNc1ncc(C#Cc2ccc3nc(C)n(C(F)F)c3c2)c2cc(NC(=O)C3CC3)ncc12 [Example 763, N-(5-((1-(difluoromethyl)-2-methyl-1H-benzo[d]imidazol-6-yl)ethynyl)-8-(methylamino)-2,7-naphthyridin-3-yl)cyclopropanecarboxamide]	≤ 100 nM	≤ 500 nM
CNc1ncc(-c2cc3ccc(OC)cn3n2)c2cc(NC(=O)C3CC3)ncc12 [Example 765, N-(5-(6-methoxypyrazolo[1,5-a]pyridin-2-yl)-8-(methylamino)-2,7-naphthyridin-3-yl)cyclopropanecarboxamide]	≤ 100 nM	≤ 500 nM
CNc1ncc(C#Cc2cc3ccc(F)cn3n2)c2cc(NC(=O)C3CC3)ncc12 [Example 767, N-(5-((6-fluoropyrazolo[1,5-a]pyridin-2-yl)ethynyl)-8-(methylamino)-2,7-naphthyridin-3-yl)cyclopropanecarboxamide]	≤ 100 nM	≤ 500 nM
CNc1ncc(C#Cc2ccc(-n3nccn3)cc2)c2cc(NC(=O)C3CC3)ncc12 [Example 772, N-(5-((4-(2H-1,2,3-triazol-2-yl)phenyl)ethynyl)-8-(methylamino)-2,7-naphthyridin-3-yl)cyclopropanecarboxamide]	≤ 100 nM	≤ 500 nM

Further lines, results first:

Kd (TYK2 JH2)	IC50 [1]	Structure (SMILES)
≤ 100 nM	≤ 500 nM	CNc1ncc(C#Cc2ccc(OC[C@H]3COCCO3)cc2)c2cc(NC(=O)C3CC3)ncc12 [Example 741, (R)—N-(5-((4-((1,4-dioxan-2-yl)methoxy)phenyl)ethynyl)-8-(methylamino)-2,7-naphthyridin-3-yl)cyclopropanecarboxamide]
≤ 100 nM	≤ 500 nM	CNc1ncc(C#Cc2ccc(OC)cn2)c2cc(NC(=O)C3(F)CC3)ncc12 [Example 743, 1-fluoro-N-(5-((5-methoxypyridin-2-yl)ethynyl)-8-(methylamino)-2,7-naphthyridin-3-yl)cyclopropane-1-carboxamide]
≤ 100 nM	≤ 500 nM	CNc1ncc(C#Cc2ccc(OC)cn2)c2cc(NC(=O)C3CC3C(F)F)ncc12 [Example 744, (1R,18)-2-(difluoromethyl)-N-(5-((5-methoxypyridin-2-yl)ethynyl)-8-(methylamino)-2,7-naphthyridin-3-yl)cyclopropane-1-carboxamide]
≤ 100 nM	≤ 500 nM	CNc1ncc(C#Cc2ccc3c(C)noc3c2)c2cc(NC(=O)C3CC3)ncc12 [Example 748, N-(8-(methylamino)-5-((3-methylbenzo[d]isoxazol-6-yl)ethynyl)-2,7-naphthyridin-3-yl)cyclopropanecarboxamide]
≤ 100 nM	≤ 500 nM	CNc1ncc(C#Cc2ccc(C(C)=O)c(O)c2)c2cc(NC(=O)C3CC3)ncc12 [Example 749, N-(5-((4-acetyl-3-hydroxyphenyl)ethynyl)-8-(methylamino)-2,7-naphthyridin-3-yl)cyclopropanecarboxamide]
≤ 100 nM	≤ 500 nM	CNc1ncc(C#Cc2ccc3nnn(C)c3c2)c2cc(Nc3ccccn3)ncc12 [Example 751, N^1-methyl-4-((1-methyl-1H-benzo[d][1,2,3]triazol-6-yl)ethynyl)-N^6-(pyridin-2-yl)-2,7-naphthyridine-1,6-diamine]
≤ 100 nM	≤ 500 nM	CNc1ncc(C#Cc2ccc3nc4n(c3c2)CCOC4)c2cc(NC(=O)C3(F)CC3)ncc12 [Example 758, N-(5-((3,4-dihydro-1H-benzo[4,5]imidazo[2,1-c][1,4]oxazin-7-yl)ethynyl)-8-(methylamino)-2,7-naphthyridin-3-yl)-1-fluorocyclopropane-1-carboxamide]
≤ 100 nM	> 500 nM	CNc1ncc(C#Cc2ccc3nnn(C)c3c2)c2cc(NC(=O)C3(F)CC3)ncc12 [Example 759, 1-fluoro-N-(5-((1-methyl-1H-benzo[d][1,2,3]triazol-6-yl)ethynyl)-8-(methylamino)-2,7-naphthyridin-3-yl)cyclopropane-1-carboxamide]
≤ 100 nM	≤ 500 nM	CNc1ncc(C#Cc2ccc3c(c2)nc(C)n3C(F)F)c2cc(NC(=O)C3CC3)ncc12 [Example 764, A-(5-((1-(difluoromethyl)-2-methyl-1H-benzo[d]imidazol-5-yl)ethynyl)-8-(methylamino)-2,7-naphthyridin-3-yl)cyclopropanecarboxamide]
≤ 100 nM	≤ 500 nM	CNc1ncc(C#Cc2cc3ccc(OC)cn3n2)c2cc(NC(=O)C3CC3)ncc12 [Example 766, N-(5-((6-methoxypyrazolo[1,5-a]pyridin-2-yl)ethynyl)-8-(methylamino)-2,7-naphthyridin-3-yl)cyclopropanecarboxamide]
≤ 100 nM	≤ 500 nM	CNc1ncc(C#Cc2ccc(OC[C@@H]3COCCO3)cc2)c2cc(NC(=O)C3CC3)ncc12 [Example 768, (S)—N-(5-((4-((1,4-dioxan-2-yl)methoxy)phenyl)ethynyl)-8-(methylamino)-2,7-naphthyridin-3-yl)cyclopropanecarboxamide]
≤ 100 nM	≤ 500 nM	CNc1ncc(C#Cc2ccc(P(C)(C)=O)cc2)c2cc(NC(=O)C3CC3)ncc12 [Example 769, N-(5-((4-(dimethylphosphoryl)phenyl)ethynyl)-8-(methylamino)-2,7-naphthyridin-3-yl)cyclopropanecarboxamide]
≤ 100 nM	≤ 500 nM	CCC(=O)N1CC(Oc2ccc(C#Cc3cnc(NC)c4cnc(NC(=O)C5CC5)cc34)cc2)C1 [Example 770, N-(8-(methylamino)-5-((4-((1-propionylazetidin-3-yl)oxy)phenyl)ethynyl)-2,7-naphthyridin-3-yl) cyclopropanecarboxamide]
≤ 100 nM	≤ 500 nM	CNc1ncc(C#Cc2ccc(OC3CN(C(=O)C4CC4)C3)cc2)c2cc(NC(=O)C3CC3)ncc12 [Example 771, N-(5-((4-((1-(cyclopropanecarbonyl)azetidin-3-yl)oxy)phenyl)ethynyl)-8-(methylamino)-2,7-naphthyridin-3-yl)cyclopropanecarboxamide]
≤ 100 nM	≤ 500 nM	CNc1ncc(C#Cc2ccc3nc(C(C)(F)F)n(C)c3c2)c2cc(NC(=O)C3CC3)ncc12 [Example 773, N-(5-((2-(1,1-difluoroethyl)-1-methyl-1H-benzo[d]imidazol-6-yl)ethynyl)-8-(methylamino)-2,7-naphthyridin-3-yl)cyclopropanecarboxamide]
